These results are taken from ChEMBL document CHEMBL1212720, “Identification of the toxic trigger in mushroom poisoning” (Nat Chem Biol, 2009).

Data set [1] has as its system Mus musculus. The data set can be described thus: Toxicity in po dosed ICR mouse assessed as decreased in mobility after 3 hrs. As to conditions: in vivo. The data set is classed as organism-based.
Data set [2] is described as follows: (§1) Toxicity in po dosed rat. Format: organism-based. As to conditions: in vivo.
In the next data set the test system is Rattus norvegicus. Described as §1. Format: organism-based. As to conditions: in vivo.
A short description of data set [3]: Toxicity in po dosed mouse. The data set is classed as organism-based. As to conditions: in vivo.
Another data set relates to Corynebacterium. In words: Antibacterial activity against Corynebacterium after 18 to 48 hrs by serial dilution method. Format: functional.
The next data set concerns Salmonella. The data set can be described thus: Antibacterial activity against Salmonella after 18 to 48 hrs by serial dilution method. Format: functional.
For a further data set, the system named is Proteus. The data set can be described thus: Antibacterial activity against Proteus after 18 to 48 hrs by serial dilution method. The data set is classed as functional.
Another data set relates to Pseudomonas. The data set can be described thus: Antibacterial activity against Pseudomonas after 18 to 48 hrs by serial dilution method. Format: functional.
A further data set deals with Klebsiella. In words: Antibacterial activity against Klebsiella after 18 to 48 hrs by serial dilution method. Format: functional.
The next data set relates to Candida. The data set can be described thus: Antifungal activity against Candida after 18 to 48 hrs by serial dilution method. The data set is classed as functional.
Another data set has as its system Saccharomyces. In words: Antifungal activity against Saccharomyces after 18 to 48 hrs by serial dilution method. The data set is classed as functional.
The nature of data set [4]: Antibacterial activity against Cryptococcus after 18 to 48 hrs by serial dilution method. The data set is classed as functional.
The test system of a further data set is Enterococcus. In words: Antibacterial activity against Enterococcus after 18 to 48 hrs by serial dilution method. The data set is classed as functional.
The subject of the next data set is Mycobacterium. The data set can be described thus: Antibacterial activity against Mycobacterium after 18 to 48 hrs by serial dilution method. The data set is classed as functional.
The subject of data set [5] is Mus musculus. The data set can be described thus: Induction of rhabdomyolysis in ICR mouse assessed as serum creatine […] level at 5 mg/kg, po after 4 hrs by spectrophotometry (reference value: 240 +/- 34 U/L). Format: organism-based. Also noted: dose 5 mg/kg, route oral. As to conditions: in vivo.
The test system of another data set is Escherichia. In words: Antibacterial activity against Escherichia after 18 to 48 hrs by serial dilution method. Format: functional.
For a further data set, the system named is Shigella. The data set can be described thus: Antibacterial activity against Shigella after 18 to 48 hrs by serial dilution method. Format: functional.
The next data set concerns Serratia. The data set can be described thus: Antibacterial activity against Serratia after 18 to 48 hrs by serial dilution method. The data set is classed as functional.
The species named for data set [6] is Homo sapiens. The data set can be described thus: Cytotoxicity against human astrocytoma cells at 100 ug/ml by MTT assay. Format: functional, cell-based. On the technique in general: Tetrazolium dyes change colour on reduction, which living cells bring about.
The species named for data set [7] is Homo sapiens. In words: Cytotoxicity against human neuronal tumor cells at 100 ug/ml by MTT assay. The data set is classed as functional, cell-based.
The test system of the next data set is sarcoma. In words: Cytotoxicity against human synovial sarcoma cells at 100 ug/ml by MTT assay. The data set is classed as functional, cell-based.
The species entered for data set [8] is Mus musculus. The data set can be described thus: Cytotoxicity against mouse neuronal tumor cells at 100 ug/ml by MTT assay. The data set is classed as functional, cell-based.
Data set [9] is described as follows: Cytotoxicity against mouse DRG neuron at 100 ug/ml by MTT assay.
A short description of data set [10]: Cytotoxicity against mouse hyphalamic cells at 100 ug/ml by MTT assay. Format: cell-based.
A short description of data set [11]: Chemical stability of the compound at 20 degC assessed as half life. Format: physicochemical.
Data set [12] deals with Mus musculus. In words: Toxicity in ip dosed ICR mouse assessed as decreased in mobility after 3 hrs. Format: organism-based. As to conditions: in vivo.
The test system of another data set is Staphylococcus. In words: Antibacterial activity against Staphylococcus after 18 to 48 hrs by serial dilution method. Format: functional.
The next data set relates to Micrococcus. The data set can be described thus: Antibacterial activity against Micrococcus after 18 to 48 hrs by serial dilution method. The data set is classed as functional.
The test system of the next data set is Bacillus. The data set can be described thus: Antibacterial activity against Bacillus after 18 to 48 hrs by serial dilution method. Format: functional.
For data set [13], the system named is Mus musculus. In words: Induction of rhabdomyolysis in ICR mouse assessed as serum creatine […] level at 70 mg/kg, po after 4 hrs by spectrophotometry (reference value: 240 +/- 34 U/L). Format: organism-based. Set-up: dose 70 mg/kg, route oral. As to conditions: in vivo.

What is called LD50 is the dose at which mortality reaches 50%. Read a high LD50 as a less toxic substance. On to `CCCC(=O)O` [BUTYRIC ACID], for which, in the data set with Mus musculus [1], the LD100 amounted to 5000 mg/kg. Also, the median lethal dose (LD50) in [2] worked out at 8790 mg/kg. The LDLO with Rattus norvegicus turned out to be 500 mg/kg.
`C#CC(=O)O` [PROPIOLIC ACID]: the 50% lethal dose (LD50) in data set [3] is 100 mg/kg.
A word on the MIC: it is the lowest concentration found to suppress growth. A low value points to inhibition by little substance. The half-life is how long it takes for the measured level to halve. For `O=C(O)C1C=C1`, the MIC in the data set with Corynebacterium, against Salmonella, in the data set with Proteus, against Pseudomonas, against Klebsiella and against Candida was more than 100 µg/mL in each case. For the same compound, the MIC (against Saccharomyces; in data set [4]; with Enterococcus; against Mycobacterium; in the data set with Escherichia; in the data set on Shigella) was more than 100 µg/mL throughout. Also, the minimum inhibitory concentration (MIC) in the data set on Serratia, against Staphylococcus, with Micrococcus and against Bacillus was more than 100 µg/mL in each case. The Activity with Mus musculus [5] is 3441 U/L; in the data set listed under Homo sapiens [6], “Not toxic”; in the data set listed under Homo sapiens [7], “Not toxic”; with sarcoma, “Not toxic”; in the data set filed under Mus musculus [8], “Not toxic”; in data set [9], “Non-toxic”. Besides, in data set [10], the Activity result is given as “Non-toxic”. Besides, the half-life in data set [11] was 20 h. The LD100 with Mus musculus [1] and with Mus musculus [12] was 2.5 mg/kg in each case.
Turning to `CC1=CC1C(=O)O` (centres undefined), the LD100 in the data set on Mus musculus [1] stood at 50 mg/kg.
For `C=C(C)C(=O)O` [METHACRYLIC ACID], the median lethal dose (LD50) in data set [3] was determined as 1600 mg/kg.
As to `CC1=C(C)C1C(=O)O`, the LD100 with Mus musculus [1] was more than 250 mg/kg.
Take `Nc1ccc(N)cc1`: the Activity in the data set with Mus musculus [13] worked out at 397 U/L.
`CC(=O)O` [ACETIC ACID]: the LD100 in the data set on Mus musculus [1] came out at 2500 mg/kg. In data set [3], this compound showed an LD50 of 4960 mg/kg.
For the compound `C/C=C/C(=O)O` [CROTONIC ACID], the LD100 with Mus musculus [1] stood at 2500 mg/kg. In data set [3], this compound yielded an LD50 of 400 mg/kg.
The compound `CCC(=O)O` [PROPIONIC ACID] displayed an LD50 in data set [3] of 5100 mg/kg.
